The values below come from patent US20040214850A1, “1-glyoxylamide indolizines for treating cancer” (Synta Pharmaceuticals Corp., priority 2001, published 2004).

In data set [1] the test system is DU-145 (human prostate cancer). The experiment in a line: In vitro anti-cancer activity, MTS growth inhibition assay, DU-145. Format: cell-based. Particulars: DU-145 cells, 72 hours, MTS assay (Table 1), read-out: IC50. The method, then: (§1) The in vitro activity of the compounds was determined in the following seven human cancer cell lines. MDA435 (human breast cancer), MIP101 (human colon cancer), HL-60 (human myeloid leukemia), U937 (human leukemia), p388 (murine leukemia), DU-145 (human prostate cancer), MES-SA (human uterine sarcoma) were obtained from ATCC (American Type of Culture Collection).
(§2) The cell lines were maintained in RPMI1640 (GIBCO) supplemented with 10% FCS, 100 units/ml penicillin, 100 ug/ml streptomycin, and 2 mM L-glutamine. The cells were split every third day and diluted to a concentration of 2×10^5 cells/ml one day before experiment. All experiments were performed on exponentially growing cell culture. Cell densities were 2.5×10^4 cells/ml in all experiment.
(§3) A stock solution of Compound (1) and a stock solution of Taxol (positive control) were prepared by dissolving the compound at a concentration of 1 mM in 100% DMSO. Final concentrations were obtained by diluting the stock solution directly into the tissue culture medium. Cells were incubated with varying concentrations of the compounds for 72 hours and the IC50 was determined by MTS (i.e. 3-(4,5,-dimethylthiazol-2-yl)-2,5-diphenyl tetrazolium bromide) assay. IC50 stands for the concentration of compound required to inhibit 50% tumor cell growth.
The protocol described in Examples 9-10 was used to assay inhibition by Compounds (20) (21) (24) and (28) on the growth of cancer cell lines MES-SA (human uterine sarcoma cell line) and DU-145 (human prostate cancer).

For data set [2], the system named is MIP101 (human colon cancer). Description: In vitro anti-cancer activity, MTS growth inhibition assay, MIP-101. Format: cell-based. Particulars: MIP-101 cells, 72 hours. The procedure:
as §1, §2, §3
On the technique in general: Tetrazolium dyes change colour on reduction, which living cells bring about.

A short description of data set [3]: Body weight of nude mice bearing MDA435 tumor during treatment. Format: in vivo, nude mice (CD-1 nu/nu). Particulars: 25 and 50 mg/kg orally. The procedure: The in vivo anti-cancer efficacy of Compound (1) was assessed in tumor bearing mice using a tumor growth inhibition assay. Human breast tumor (MDA-435) cells were implanted by injection of a tumor cell suspension subcutaneously in the flank of a nude mouse. Treatment of the tumor with an experimental compound began after the tumor had been established (volume was approximately 100 mm^3). The animal then began a multiple injection schedule where the compound was administered orally. Tumors were measured two times a week. During the course of this assay, animals were monitored daily for signs of toxicity including body weight loss.
A dosing solution for compound administration was prepared by dissolving 1 gram of Compound (1) in 10 ml of acetone (HPLC grade), and sonicated for 5 minutes using 550 Sonic Dismembrator. 1.2 equivalents of 1 N HCl aqueous solution were added to the acetone solution which was then sonicated for 5 minutes. All solvent was then evaporated from the solution by using Speed Vac Plus SC 250 DDA over night. The dried powder was used for preparing the dosing solution of Compound (1). 1% Methyl cellulose (MC) vehicle was prepared by dissolving 1.0 gram of Methyl cellulose, 400 cps, U.S.P. (Spectrum Laboratory Products, Cat. # ME136) in 100 mL of H2O. This mixture was then stirred for 12 hours at room temperature to produce a clear 1% MC solution. […]

In data set [4] the test system is HL-60 (human myeloid leukemia). Description: In vitro anti-cancer activity, MTS growth inhibition assay, HL-60. Format: cell-based. The note with it: HL-60 cells, 72 hours. The method, then:
as §1, §2, §3

Data set [5] deals with seven cancer cell lines from different tissue types. Description: Text summary: in vitro activity over the seven cancer cell lines of Table 1. The note with it: range over the seven cell lines of Table 1; read-out: IC50 against seven cancer cell lines. Format: cell-based. The procedure:
as §1, §2, §3

Another data set relates to p388 (murine leukemia). The experiment in a line: In vitro anti-cancer activity, MTS growth inhibition assay, p388. The class given is cell-based. Particulars: Mus musculus, p388 cells, 72 hours. The method, then: as §1, §2, §3
The subject of data set [6] is MDR cell lines (MES-SA/DX5, HL-60/TX1000). Description: in vitro activity over the two MDR cell lines. Particulars: MES-SA/DX5, HL-60/TX1000; in words. The class given is cell-based, human. The method, then: as §2, §3
In vitro activity was determined in two MDR (Multi Drug Resistant) human cancer cell lines. HL-60/TX1000 was isolated in vitro by subculturing HL-60 in progressively higher concentration of Taxol. HL-60/TX1000 cells over-express mdr-1 mRNA and p-glycoprotein, as determined by western blot and immunofluorescence labeling with antiPGP antibodies. The cell is cross-resistant to Taxol, Vincristine, Adriamycin, Etoposide and Doxorubicin. MES-SA/Dx5 was established in the presence of increasing concentrations of Doxorubicin. […] MES-SA/Dx5 was purchased from ATCC.
The procedure for culturing the cells and assaying cancer cell growth inhibition were as described in Example 3.

One may read the IC50 as the concentration at which inhibition is half-maximal.

Turning to `Cc1cc(NC(=O)C(=O)c2cc(Cc3ccc(C#N)cc3)n3ccccc23)sn1` [Compound (1), 2-(3-(4-cyanobenzyl)-indolizin-1-yl)-N-(3-methyl-isothiazol-5-yl)-2-oxo-acetamide], the IC50 in data set [1] was 0.05 µM; in data set [2] it was 0.02 µM; in data set [4], 0.01 µM; in data set [5] it was 0.01 to 0.05 µM; in the data set on p388 (murine leukemia) it was 0.01 µM. For the same compound, the body weight change entry in data set [3] (FIG. 2) is given as “without showing significant body weight loss”; in data set [3] (FIG. 2, listed as Compound 1), “Little or no change in body weight”. Besides, the “anti-cancer activity against MDR cancer cell lines” value in data set [6] is “high anti-cancer activity”.
